Assay results: patent publication USRE39707E1, “Camptothecin derivatives” (Catholic Healthcare West, priority 2001, dated 2007)
Like-named read-outs stand apart in the source and are kept apart here. Marks after values point to notes of the source that are not given here.

How the values were obtained:
HCT116 = experiment: Cell colony formation assay, HCT116 cells; assay type: cell-based, human; conditions: 72 hours drug exposure
Method: (§1) This example provides directions for growing cells and testing compounds of the invention for their effect on the growth of the cells. All cells were purchased from DCIDC Tumor Repository, NCI, NIH.
The cells were incubated in a CO2 incubator at 37° C. for 5 hours for attachment to the bottom of Petri dishes. Drugs were made fresh in medium at ten times the final concentration, and then 0.3 ml of this stock solution was added to the 2.7 ml of medium in the dish. The cells were then incubated with drugs for 72 hours at 37° C. At the end of the incubation the drug-containing media were decanted, the dishes were rinsed with 4 ml of Hank's Balance Salt Solution (HBSS), 5 ml of fresh medium was added, and the dishes were returned to the incubator for colony formation. The cell colonies were counted using colony counter after incubation for 7 days for HCT116 cells and PC-3 cells and 8 days for VM46 cells, respectively.

VM46 = experiment: Cell colony formation assay, VM46 cells; assay type: cell-based; conditions: 72 hours drug exposure
Method: as §1
(§2) Four hundred cells (HCT 116, PC-3, NCI/ADR-RES: human breast cancer cells) or five hundred cells (VM46) were plated in 60 mm Petri dishes containing 2.7 ml of medium (modified McCoy's 5a medium) containing 10% fetal bovine serum and 100 units/ml penicillin and […] streptomycin. The cells were incubated in a CO2 incubator at 37° C. for 5 hours for attachment to the bottom of Petri dishes. Drugs were made fresh in medium at ten times the final concentration, and then 0.3 ml of this stock solution was added to the 2.7 ml of medium in the dish. The cells were then incubated with drugs for 72 hours at 37° C. At the end of the incubation the drug-containing media were decanted, the dishes were rinsed with 4 ml of Hank's Balance Salt Solution (HBSS), 5 ml of fresh medium was added, and the dishes were returned to the incubator for colony formation. The cell colonies were counted using colony counter after incubation for 7 days for HCT116 cells and PC-3 cells and 8 days for VM46 cells, respectively.
(§3) Values of ID50 (the drug concentration producing 50% inhibition of colony formation) may be determined for each tested compound. The directions described in this example may be used in other cells, such as DU-145.

C3H/HeJ mice = test system: C3H/HeJ mice
Method: This example provides directions for performing in vivo toxicity tests of the compounds of the invention on C3H/HeJ mice.
Acute toxicities of the compounds of this invention are evaluated on C3H/HeJ mice (body weight 18-22 g). The MTD40 (maximum tolerated dose at day 40) values were determined by the standard procedure described by Gad and Chengelis (see, for example, “Acute Toxicology Testing,” 2nd Ed., Shayne O. Gad and Christopher P. Chengelis, pp. 186-195 (Academic Press)). In the consecutive type studies, 2 mice were dosed at low and moderate doses of 40 and 100 mg/kg. If no severe and irreversible toxicity (euthanasia is required) occurs at these doses, a new pair of animals was initiated at 180 mg/kg, which is 1.8 times higher than 100 mg/kg. Sequential dosages (about 3 doses on 3 pairs of animals, i.e. 2 mice for each drug dose) were increased by a factor of 1.8 until severe and irreversible toxicity (euthanasia is required) occurred. Then another pair of animals was initiated at the highest nonlethal dosage, and successive dosages were increased by a factor of 1.15. The result of this exercise was two dosages, one apparently nonlethal and the other lethal if severe and irreversible toxicity occurs and euthanasia is required, separated by a factor of 1.15. Six mice were dosed at each dosage. If no severe and irreversible toxicity occurred at the lower dosage and at least one with severe and irreversible toxicity occurred at the higher dose, then the lower dose was considered to be the MTD. The compounds of this invention were administered to C3H/HeJ mice by intraperitoneal injection. Drug toxicity was evaluated on mice checked daily for 45 days.

PC-3 = experiment: Cell colony formation assay, PC-3 cells; assay type: cell-based, human; conditions: 72 hours drug exposure
Method: as §1, §2, §3

[1] = maximum tolerated dose at day 40, C3H/HeJ mice

Row | Molecule | In Vitro Efficacy: Survival (%) of HCT116 (HCT116; 10 nM) | In Vitro Efficacy: Survival (%) of HCT116 (HCT116; 100 nM) | In vitro efficacy: Survival (%) of cells line VM46 (VM46; 1 nM) | In vitro efficacy: Survival (%) of cells line VM46 (VM46; 10 nM) | In Vivo Toxicity MTD40 (ip, mg/kg) in C3H/Hej Mice (C3H/HeJ mice; [1]) | In Vitro Efficacy: Survival (%) of HCT116 (HCT116; 1 nM) | In vitro efficacy: Survival (%) of cells line PC-3 (PC-3; 1 nM) | In vitro efficacy: Survival (%) of cells line PC-3 (PC-3; 5 nM) | In Vivo Toxicity MTD40 (ip, mg/kg) in C3H/Hej Mice (C3H/HeJ mice; mouse, in vivo)
1 | CCc1c2c(nc3ccc(OC(=O)N4CCC(N5CCCCC5)CC4)cc13)-c1cc3c(c(=O)n1C2)COC(=O)[C@]3(O)CC [CPT 11, 7-ethyl-10[4-(1-piperidino)-1-piperidino]carbonyloxy CPT, reference compound] | 100% | 90.52% | – | – | – | – | – | – | –
2 | CC[C@@]1(O)C(=O)OCc2c1cc1n(c2=O)Cc2cc3ccccc3nc2-1 [CPT, (S)-4-ethyl-4-hydroxy-1H-pyrano-[3′,4′:6,7]indolizino[1,2-b]quinoline-3,14(4H,12H)-dione, reference compound] | 73.72% | – | 77.64% | 0% | <20** mg/kg | 100% | 93.85% | 33.09% | –
3 | CCC1(OC(=O)COc2ccc(OC)cc2)C(=O)OCc2c1cc1n(c2=O)Cc2cc3ccccc3nc2-1 (stereo not shown) [Example 000314, Camptothecin-20-O-ester of 4-methoxyphenoxyacetic acid] | – | 0% | – | – | >150 mg/kg | – | – | – | –
4 | CCCCOCC(=O)OC1(CC)C(=O)OCc2c1cc1n(c2=O)Cc2cc3ccccc3nc2-1 (stereo not shown) [Example 000316, Camptothecin-20-O-ester of butyloxyacetic acid] | 0% | 0% | 77.50% | 0% | <150 mg/kg | 100% | 85.72% | 54.79% | –
5 | CCC1(OC(=O)COc2ccc(C(C)C)cc2)C(=O)OCc2c1cc1n(c2=O)Cc2cc3ccccc3nc2-1 (stereo not shown) [Example 000418, Camptothecin-20-O-ester of 4-isopropylphenoxyacetic acid] | 0% | 0% | 79.17% | 0% | >150 mg/kg | 97.56% | 100% | 78.12% | –
6 | CCC1(OC(=O)COc2ccc(Cl)cc2)C(=O)OCc2c1cc1n(c2=O)Cc2cc3ccccc3nc2-1 (stereo not shown) [Example 000517, Camptothecin-20-Oester of 4-chlorophenoxyacetic acid] | 0% | 0% | – | – | – | 100% | – | – | <150 mg/kg
7 | CCC1(OC(=O)COc2ccc(C)cc2)C(=O)OCc2c1cc1n(c2=O)Cc2cc3ccccc3nc2-1 (stereo not shown) [Example 000518, Camptothecin-20-O-ester of 4-methylphenoxyacetic acid] | 0% | 0% | – | – | <150 mg/kg | 97.31% | – | – | –
8 | CCC1(OC(=O)COc2ccc3c(c2)CC[C@@H]2[C@@H]3CC[C@]3(C)C(=O)CC[C@@H]23)C(=O)OCc2c1cc1n(c2=O)Cc2cc3ccccc3nc2-1 (stereo partly shown) [Example 000531, Camptothecin-20-O-ester of estra-1,3,5(10)-trien-17-one-3-oxyacetic acid] | 0% | 0% | – | – | – | 81.45% | – | – | >150 mg/kg
9 | CCC1(OC(=O)COc2c(Cl)cc(F)cc2Cl)C(=O)OCc2c1cc1n(c2=O)Cc2cc3ccccc3nc2-1 (stereo not shown) [Example 000602, Camptothecin-20-O-ester of 2,6-dichloro-4-fluorophenoxyacetic acid] | 0% | 0% | – | – | >150 mg/kg | 74.00% | – | – | –
10 | CCC1(OC(=O)COc2ccc([N+](=O)[O-])c(C(F)(F)F)c2)C(=O)OCc2c1cc1n(c2=O)Cc2cc3ccccc3nc2-1 (stereo not shown) [Example 000605, Camptothecin-20-O-ester of 4-nitro-3-trifuoromethylphenoxyacetic acid] | 0% | 0% | – | – | >150 mg/kg | 88.00% | – | – | –
11 | CC[C@@]1(OC(=O)COc2ccc(C)nc2I)C(=O)OCc2c1cc1n(c2=O)Cc2cc3ccccc3nc2-1 [Example 000616, Camptotheci-20-O-ester of 6-iodo-2-methylpyridine-5-oxyacetic acid] | 0% | 0% | – | – | >150 mg/kg | 84.85% | – | – | –
12 | CCC1(OC(=O)COc2ccc(C(=O)O)cc2)C(=O)OCc2c1cc1n(c2=O)Cc2cc3ccccc3nc2-1 (stereo not shown) [Example 000725, Camptothecin-20-O-ester of 4-carboxyphenoxyacetic acid] | 0% | 0% | – | – | >150 mg/kg | 100% | – | – | –
13 | CC[C@@]1(OC(=O)COc2nc3ccccc3s2)C(=O)OCc2c1cc1n(c2=O)Cc2cc3ccccc3nc2-1 [Example 000727, Camptothecin-20-O-ester of benzothiazole-2-oxyacetic acid] | 0% | 0% | – | – | – | 96.81% | – | – | –
14 | CCC1(OC(=O)COc2ccc(C#N)c(F)c2)C(=O)OCc2c1cc1n(c2=O)Cc2cc3ccccc3nc2-1 (stereo not shown) [Example 001030, Camptothecin-20-O-ester of 4-cyano-3-fluorophenoxyacetic acid] | 0% | – | – | – | – | 86.90% | – | – | –
15 | Camptothecin-20-O-ester of ethylexyacetic acid [Example 000627] | 0% | 0% | – | – | <150 mg/kg | 70.44% | – | – | –
